From patent US11236047B2 (ASTEX THERAPEUTICS LIMITED, priority 2017, dated 2022)
Where two headings read alike, the source gives them in different places.

Tested on: SJSA-1 cells
Assay: Protocol B: SJSA-1 CellTiter-Glo luminescent cell viability assay
[1] = Homo sapiens, SJSA-1, read-out: SJSA1 IC50 (μM) (Protocol B), SJSA-1, Protocol B
[2] = read-out: SJSA1 IC50 (μM) (Protocol B), SJSA-1, Protocol B
[3] = read-out: SJSA1 IC50, Protocol B, SJSA-1

Experimental: Protocol B: SJSA-1 and SN40R2 Assays
The CellTiter-Glo® Luminescent Cell Viability Assay is a homogeneous method to determine the number of viable cells in culture based on quantitation of the ATP present, which signals the presence of metabolically active cells. […] 100 μl of CTG reagent (Promega #G7573) was added to all wells and luminescence was measured on the topcount. The EC50 values were determined from a sigmoidal 4 parameter curve fit using XLfit in conjunction with Activity Base (IDBS; Guildford, Surrey, UK).

**Q.** For `CN(C)CC(C)(O)c1cc(F)c2c(c1)C(=O)N(Cc1ccc(Cl)cn1)[C@@]2(O[C@H]1CCOC1)c1ccc(Cl)cc1` (single isomer, unassigned) [Example 138], which IC50 [1] is on record?
**A.** Its IC50 is 0.56 µM.

**Q.** How did the IC50 [2] turn out when `CCOCC(C)(O)c1cc(F)c2c(c1)C(=O)N(Cc1ccc(Cl)cn1)[C@@]2(O[C@H]1CCOC1)c1ccc(Cl)cc1` (single isomer, unassigned) [Example 140] was run?
**A.** Its IC50 is 0.23 µM.

**Q.** `CCOCC(C)(O)c1cc(F)c2c(c1)C(=O)N(Cc1ccc(Cl)cn1)[C@@]2(O[C@H]1CCOC1)c1ccc(Cl)cc1` (single isomer, unassigned) [Example 141] was tested. Which IC50 [2] did it give?
**A.** The IC50 was 1.8 µM.

**Q.** For `[2H]C([2H])([2H])OCC(C)(O)c1cc(F)c2c(c1)C(=O)N(C([2H])([2H])c1ccc(Cl)cn1)[C@@]2(O[C@H]1CCOC1)c1ccc(Cl)cc1` (single isomer, unassigned) [Example 142], which IC50 [2] is on record?
**A.** Its IC50 is 0.23 µM.

**Q.** Which IC50 [2] does the source give for `[2H]C([2H])([2H])OCC(C)(O)c1cc(F)c2c(c1)C(=O)N(C([2H])([2H])c1ccc(Cl)cn1)[C@@]2(O[C@H]1CCOC1)c1ccc(Cl)cc1` (single isomer, unassigned) [Example 143] here?
**A.** Its IC50 is 0.86 µM.

**Q.** Which IC50 [2] does the source give for `CO[C@]1(c2ccc(Cl)cc2)c2c(F)cc(C(C)(O)c3ncc[nH]3)cc2C(=O)N1Cc1ccc(Cl)cn1` (single isomer, unassigned) [Example 164] here?
**A.** Its IC50 is 2.2 µM.

**Q.** How did the IC50 [2] turn out when `CO[C@]1(c2ccc(Cl)cc2)c2c(F)cc(C(C)(O)c3nccs3)cc2C(=O)N1Cc1ccc(Cl)cn1` (single isomer, unassigned) [Example 166] was run?
**A.** Its IC50 is 3.8 µM.

**Q.** `Cn1cc(C(C)(O)c2cc(F)c3c(c2)C(=O)N(Cc2ccc(Cl)cn2)[C@@]3(OCC2(C(N)=O)CC2)c2ccc(Cl)cc2)cn1` (single isomer, unassigned) [Example 178] was tested. Which IC50 [1] did it give?
**A.** Its IC50 is 0.1 µM.

**Q.** Which IC50 [1] does the source give for `CCn1cc(C(C)(O)c2cc(F)c3c(c2)C(=O)N(Cc2ccc(Cl)cn2)[C@@]3(OCC2(C(N)=O)CC2)c2ccc(Cl)cc2)cn1` (single isomer, unassigned) [Example 180] here?
**A.** Its IC50 is 0.16 µM.

**Q.** How did the IC50 [2] turn out when `CCn1cc(C(C)(O)c2cc(F)c3c(c2)C(=O)N(Cc2ccc(Cl)cn2)[C@@]3(OCC2(O)CC2)c2ccc(Cl)cc2)cn1` (single isomer, unassigned) [Example 183] was run?
**A.** The IC50 was 0.43 µM.

**Q.** How did the IC50 [2] turn out when `CCn1cc(C(C)(O)c2cc(F)c3c(c2)C(=O)N(Cc2ccc(Cl)cn2)[C@@]3(OCC2(O)CC2)c2ccc(Cl)cc2)cn1` (single isomer, unassigned) [Example 184] was run?
**A.** The IC50 was 0.14 µM.

**Q.** With `Cc1nnc(C(C)(O)c2cc(F)c3c(c2)C(=O)N(Cc2ccc(Cl)cn2)[C@@]3(OCC2(O)CC2)c2ccc(Cl)cc2)o1` (single isomer, unassigned) [Example 185] as the molecule, how does the IC50 [2] read?
**A.** The IC50 was 2.2 µM.

**Q.** With `Cc1nnc(C(C)(O)c2cc(F)c3c(c2)C(=O)N(Cc2ccc(Cl)cn2)[C@@]3(OCC2(O)CC2)c2ccc(Cl)cc2)o1` (single isomer, unassigned) [Example 186] as the molecule, how does the IC50 [2] read?
**A.** Its IC50 is 0.42 µM.

**Q.** With `CO[C@]1(c2ccc(Cl)cc2)c2c(F)cc(C(C)(O)c3cn(C)nn3)cc2C(=O)N1Cc1ccc(Cl)cn1` (single isomer, unassigned) [Example 187] as the molecule, how does the IC50 [1] read?
**A.** The IC50 was 0.89 µM.

**Q.** Which IC50 [2] does the source give for `CO[C@]1(c2ccc(Cl)cc2)c2c(F)cc(C(C)(O)c3ccn(C)n3)cc2C(=O)N1Cc1ccc(Cl)cn1` (single isomer, unassigned) [Example 189] here?
**A.** The IC50 was 1 µM.

**Q.** For `CO[C@]1(c2ccc(Cl)cc2)c2c(F)cc(C(C)(O)c3ccn(C)n3)cc2C(=O)N1Cc1ccc(Cl)cn1` (single isomer, unassigned) [Example 190], which IC50 [2] is on record?
**A.** Its IC50 is 5 µM.

**Q.** How did the IC50 [1] turn out when `CC(O)(c1cc(F)c2c(c1)C(=O)N(Cc1ccc(Cl)cn1)[C@@]2(OCC1(C(N)=O)CC1)c1ccc(Cl)cc1)c1cscn1` (single isomer, unassigned) [Example 193] was run?
**A.** The IC50 was 0.14 µM.

**Q.** With `Cn1cnc(C(C)(O)c2cc(F)c3c(c2)C(=O)N(Cc2ccc(Cl)cn2)[C@@]3(OCC2(O)CC2)c2ccc(Cl)cc2)c1` (single isomer, unassigned) [Example 195] as the molecule, how does the IC50 [2] read?
**A.** Its IC50 is 0.61 µM.

**Q.** For `Cn1cnc(C(C)(O)c2cc(F)c3c(c2)C(=O)N(Cc2ccc(Cl)cn2)[C@@]3(OCC2(O)CC2)c2ccc(Cl)cc2)c1` (single isomer, unassigned) [Example 196], which IC50 [2] is on record?
**A.** Its IC50 is 0.15 µM.

**Q.** For `Cc1nc(C(C)(O)c2cc(F)c3c(c2)C(=O)N(Cc2ccc(Cl)cn2)[C@@]3(OCC2(C(N)=O)CC2)c2ccc(Cl)cc2)cn1C` (single isomer, unassigned) [Example 197], which IC50 [1] is on record?
**A.** The IC50 was 0.21 µM.

**Q.** For `Cn1cc(C(C)(O)c2cc(F)c3c(c2)C(=O)N(Cc2ccc(Cl)cn2)[C@@]3(OCC2(O)CC2)c2ccc(Cl)cc2)cn1` (single isomer, unassigned) [Example 199], which IC50 [2] is on record?
**A.** Its IC50 is 0.83 µM.

**Q.** With `Cn1cc(C(C)(O)c2cc(F)c3c(c2)C(=O)N(Cc2ccc(Cl)cn2)[C@@]3(OCC2(O)CC2)c2ccc(Cl)cc2)cn1` (single isomer, unassigned) [Example 200] as the molecule, how does the IC50 [2] read?
**A.** The IC50 was 0.099 µM.

**Q.** With `Cn1cc(C(C)(O)c2cc(F)c3c(c2)C(=O)N(Cc2ccc(Cl)cn2)[C@@]3(OCC2(C#N)CC2)c2ccc(Cl)cc2)cn1` (single isomer, unassigned) [Example 201] as the molecule, how does the IC50 [2] read?
**A.** The IC50 was 0.76 µM.

**Q.** For `Cn1cc(C(C)(O)c2cc(F)c3c(c2)C(=O)N(Cc2ccc(Cl)cn2)[C@@]3(OCC2(C#N)CC2)c2ccc(Cl)cc2)cn1` (single isomer, unassigned) [Example 202], which IC50 [2] is on record?
**A.** Its IC50 is 0.11 µM.

**Q.** `Cn1cc(C(C)(O)c2cc(F)c3c(c2)C(=O)N(Cc2ncc(Cl)cn2)[C@@]3(OCC2(O)CC2)c2ccc(Cl)cc2)cn1` (single isomer, unassigned) [Example 203] was tested. Which IC50 [2] did it give?
**A.** The IC50 was 0.08 µM.

**Q.** How did the IC50 [2] turn out when `Cn1cc(C(C)(O)c2cc(F)c3c(c2)C(=O)N(Cc2ncc(Cl)cn2)[C@@]3(OCC2(O)CC2)c2ccc(Cl)cc2)cn1` (single isomer, unassigned) [Example 204] was run?
**A.** Its IC50 is 0.94 µM.

**Q.** How did the IC50 [2] turn out when `CC(O)(CN1CCCC1)c1cc(F)c2c(c1)C(=O)N(Cc1ccc(C#N)cn1)[C@@]2(OCC1(C#N)CC1)c1ccc(Cl)cc1` (single isomer, unassigned) [Example 276] was run?
**A.** Its IC50 is 2.5 µM.

**Q.** Which IC50 [2] does the source give for `CC(O)(CN1CCCC1)c1cc(F)c2c(c1)C(=O)N(Cc1ccc(C#N)cn1)[C@@]2(OCC1(C#N)CC1)c1ccc(Cl)cc1` (single isomer, unassigned) [Example 277] here?
**A.** The IC50 was 1.2 µM.

**Q.** How did the IC50 [2] turn out when `CN1CCN(CC(C)(O)c2cc(F)c3c(c2)C(=O)N(Cc2ccc(C#N)cn2)[C@@]3(OCC2(C#N)CC2)c2ccc(Cl)cc2)CC1` (single isomer, unassigned) [Example 278] was run?
**A.** Its IC50 is 2.6 µM.

**Q.** For `CN1CCN(CC(C)(O)c2cc(F)c3c(c2)C(=O)N(Cc2ccc(C#N)cn2)[C@@]3(OCC2(C#N)CC2)c2ccc(Cl)cc2)CC1` (single isomer, unassigned) [Example 279], which IC50 [2] is on record?
**A.** Its IC50 is 0.57 µM.

**Q.** How did the IC50 [2] turn out when `CO[C@]1(c2ccc(Cl)cc2)c2c(F)cc(C(C)(O)C3CCN(C(=O)CN(C)C)CC3)cc2C(=O)N1Cc1ccc(Cl)cn1` (single isomer, unassigned) [Example 298] was run?
**A.** The IC50 was 0.55 µM.

**Q.** `CO[C@]1(c2ccc(Cl)cc2)c2c(F)cc(C(C)(O)C3CCN(C(=O)CN(C)C)CC3)cc2C(=O)N1Cc1ccc(Cl)cn1` (single isomer, unassigned) [Example 299] was tested. Which IC50 [2] did it give?
**A.** The IC50 was 2 µM.

**Q.** How did the IC50 [1] turn out when `CO[C@]1(c2ccc(Cl)cc2)c2c(F)cc(C(C)(O)C3CCS(=O)(=O)CC3)cc2C(=O)N1Cc1ccc(Cl)cn1` (single isomer, unassigned) [Example 311] was run?
**A.** The IC50 was 0.25 µM.

**Q.** How did the IC50 [1] turn out when `CC(O)(c1cc(F)c2c(c1)C(=O)N(Cc1ccc(Cl)cn1)[C@@]2(OCCO)c1ccc(Cl)cc1)C1CCS(=O)(=O)CC1` (single isomer, unassigned) [Example 313] was run?
**A.** Its IC50 is 0.95 µM.

**Q.** Which “SJSA1 (Protocol B) % at stated concentration” value (SJSA-1, Protocol B, at 10 μM) does the source give for `CC(O)(c1cc(F)c2c(c1)C(=O)N(Cc1ccc(Cl)cn1)[C@@]2(OCCO)c1ccc(Cl)cc1)C1CCS(=O)(=O)CC1` (single isomer, unassigned) [Example 314] here?
**A.** The value was 66% at 10.

**Q.** `Cc1nc(C(C)(O)c2cc(F)c3c(c2)C(=O)N(Cc2ccc(Cl)cn2)[C@@]3(OCC2(O)CC2)c2ccc(Cl)cc2)cn1C` (single isomer, unassigned) [Example 324] was tested. Which IC50 [2] did it give?
**A.** Its IC50 is 2.2 µM.

**Q.** Which IC50 [2] does the source give for `Cc1nc(C(C)(O)c2cc(F)c3c(c2)C(=O)N(Cc2ccc(Cl)cn2)[C@@]3(OCC2(O)CC2)c2ccc(Cl)cc2)cn1C` (single isomer, unassigned) [Example 325] here?
**A.** The IC50 was 0.24 µM.

**Q.** How did the IC50 [3] turn out when `CCC(O)(c1cc(F)c2c(c1)C(=O)N(Cc1ccc(C#N)cn1)[C@@]2(OCC1(CO)CC1)c1ccc(Cl)cc1)c1cn(C)cn1` (single isomer, unassigned) [Example 337] was run?
**A.** The IC50 was 0.058 µM.

**Q.** `Cn1cc(C(C)(O)c2cc(F)c3c(c2)C(=O)N(Cc2ncc(Cl)cn2)[C@@]3(OCC2(CO)CC2)c2ccc(Cl)cc2)cn1` (single isomer, unassigned) [Example 348] was tested. Which IC50 [2] did it give?
**A.** Its IC50 is 0.27 µM.

**Q.** How did the IC50 [2] turn out when `Cn1cc(C(C)(O)c2cc(F)c3c(c2)C(=O)N(Cc2ncc(Cl)cn2)[C@@]3(OCC2(CO)CC2)c2ccc(Cl)cc2)cn1` (single isomer, unassigned) [Example 349] was run?
**A.** Its IC50 is 0.028 µM.

**Q.** For `Cn1cc(C(C)(O)c2cc(F)c3c(c2)C(=O)N(Cc2ccc(C#N)cn2)[C@@]3(O[C@H]2C[C@@H](O)C2)c2ccc(Cl)cc2)cn1` (single isomer, unassigned) [Example 355, 6-{[1-(4-chlorophenyl)-7-fluoro-5-[1-hydroxy-1-(1-methyl-1H-pyrazol-4-yl)ethyl]-3-oxo-1-[cis-3-hydroxycyclobutoxy]-2,3-dihydro-1H-isoindol-2-yl]methyl}pyridine-3-carbonitrile], which IC50 [2] is on record?
**A.** Its IC50 is 4.7 µM.

**Q.** `Cn1cc(C(C)(O)c2cc(F)c3c(c2)C(=O)N(Cc2ccc(C#N)cn2)[C@@]3(O[C@H]2C[C@@H](O)C2)c2ccc(Cl)cc2)cn1` (single isomer, unassigned) [Example 356, 6-{[1-(4-chlorophenyl)-7-fluoro-5-[1-hydroxy-1-(1-methyl-1H-pyrazol-4-yl)ethyl]-3-oxo-1-[cis-3-hydroxycyclobutoxy]-2,3-dihydro-1H-isoindol-2-yl]methyl}pyridine-3-carbonitrile] was tested. Which IC50 [2] did it give?
**A.** Its IC50 is 0.96 µM.

**Q.** With `CCC(O)(c1cc(F)c2c(c1)C(=O)N(Cc1ncc(C#N)cn1)[C@@]2(O[C@H]1CCOC1)c1ccc(Cl)cc1)c1cn(C)cn1` (single isomer, unassigned) [Example 369] as the molecule, how does the IC50 [3] read?
**A.** Its IC50 is 0.062 µM.

**Q.** Which IC50 [1] does the source give for `CC(O)(c1cc(F)c2c(c1)C(=O)N(Cc1ccc(Cl)cn1)[C@@]2(OCC1(O)CC1)c1ccc(Cl)cc1)c1ncccn1` (single isomer, unassigned) [Example 396] here?
**A.** The IC50 was 0.28 µM.
